Results on three molecules are retold here after publication PMC3445516 (PLoS ONE, 2012).

What all share (test): Ambit kinase profiling, competition binding
One experiment addresses T1, PRKD2 (Homo sapiens, UniProt Q9BZL6).
T1 construct: purchased Ambit Biosciences (KINOMEscan)
T1 sequence (Q9BZL6 1-878): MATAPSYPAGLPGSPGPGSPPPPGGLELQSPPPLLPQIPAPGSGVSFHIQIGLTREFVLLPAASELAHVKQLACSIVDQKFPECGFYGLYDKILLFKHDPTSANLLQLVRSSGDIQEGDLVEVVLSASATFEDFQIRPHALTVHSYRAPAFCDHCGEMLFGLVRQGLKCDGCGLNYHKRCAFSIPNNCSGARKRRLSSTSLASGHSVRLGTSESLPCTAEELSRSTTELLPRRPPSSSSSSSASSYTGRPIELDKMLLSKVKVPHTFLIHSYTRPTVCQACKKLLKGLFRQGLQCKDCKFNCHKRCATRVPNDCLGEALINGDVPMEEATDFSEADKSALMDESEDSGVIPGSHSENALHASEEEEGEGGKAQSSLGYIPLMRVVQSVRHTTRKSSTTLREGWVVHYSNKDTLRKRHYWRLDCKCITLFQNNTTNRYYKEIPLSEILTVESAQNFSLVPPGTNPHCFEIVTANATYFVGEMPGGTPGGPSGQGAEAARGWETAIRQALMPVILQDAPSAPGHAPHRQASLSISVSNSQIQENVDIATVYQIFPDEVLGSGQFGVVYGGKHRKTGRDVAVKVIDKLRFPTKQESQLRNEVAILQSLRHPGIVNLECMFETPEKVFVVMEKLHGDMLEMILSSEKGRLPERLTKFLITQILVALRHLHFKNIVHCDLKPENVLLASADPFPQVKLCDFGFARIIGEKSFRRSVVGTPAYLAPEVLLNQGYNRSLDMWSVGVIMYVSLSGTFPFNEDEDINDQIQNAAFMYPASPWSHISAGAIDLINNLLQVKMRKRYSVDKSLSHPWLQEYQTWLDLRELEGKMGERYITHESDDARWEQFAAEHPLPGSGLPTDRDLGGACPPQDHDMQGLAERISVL
The procedure: (§1) Also included in the kinase profile are four isoforms of PKC (δ, ε, η, θ) and eight isoforms of CAMKs (CAMKIα, δ, γ; CAMKIIα, β, δ, γ; CAMK4).
(§2) The global kinase profiling experiment was performed by Ambit Biosciences.

Another experiment addresses T2, PKC ε (Homo sapiens, UniProt Q02156).
T2 construct: purchased Ambit Biosciences (KINOMEscan)
T2 sequence (Q02156 1-737): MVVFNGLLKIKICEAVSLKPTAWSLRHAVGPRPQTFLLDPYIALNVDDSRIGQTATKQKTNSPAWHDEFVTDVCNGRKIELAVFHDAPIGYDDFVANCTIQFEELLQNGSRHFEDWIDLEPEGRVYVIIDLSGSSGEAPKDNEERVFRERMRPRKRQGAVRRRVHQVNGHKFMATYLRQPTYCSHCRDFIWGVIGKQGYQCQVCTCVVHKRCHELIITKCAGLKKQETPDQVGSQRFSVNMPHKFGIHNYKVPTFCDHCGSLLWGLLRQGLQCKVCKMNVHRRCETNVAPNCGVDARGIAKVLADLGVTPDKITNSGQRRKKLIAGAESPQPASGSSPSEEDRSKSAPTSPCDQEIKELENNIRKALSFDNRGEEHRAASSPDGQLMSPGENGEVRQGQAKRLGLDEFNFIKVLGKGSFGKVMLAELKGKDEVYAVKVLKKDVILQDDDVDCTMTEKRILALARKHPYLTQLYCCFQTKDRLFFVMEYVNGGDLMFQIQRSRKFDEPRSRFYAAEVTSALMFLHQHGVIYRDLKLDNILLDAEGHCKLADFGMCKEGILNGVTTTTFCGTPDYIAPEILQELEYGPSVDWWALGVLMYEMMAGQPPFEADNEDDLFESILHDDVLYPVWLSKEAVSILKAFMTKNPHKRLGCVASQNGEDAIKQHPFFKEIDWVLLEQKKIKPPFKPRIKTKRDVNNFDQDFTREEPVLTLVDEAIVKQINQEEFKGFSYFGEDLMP
Conditions: for competition: PKC ε, 10 µM. As for the experimental part:
as §1, §2

In experiment [1] the target is T3, JAK1 (JH2 domain-pseudokinase) (Homo sapiens, UniProt P23458).
T3 construct: JAK1 (JH2 domain-pseudokinase); purchased Ambit Biosciences (KINOMEscan)
T3 sequence (P23458 583-855 limits assumed): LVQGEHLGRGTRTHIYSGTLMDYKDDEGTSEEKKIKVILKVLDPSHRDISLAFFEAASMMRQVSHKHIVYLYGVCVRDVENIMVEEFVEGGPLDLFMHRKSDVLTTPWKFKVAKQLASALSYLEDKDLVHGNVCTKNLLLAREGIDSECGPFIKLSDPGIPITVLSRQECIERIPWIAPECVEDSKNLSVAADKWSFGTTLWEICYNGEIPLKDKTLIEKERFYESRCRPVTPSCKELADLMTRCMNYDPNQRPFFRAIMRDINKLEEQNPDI
Conditions: for % Competition: JAK1 (JH2 domain-pseudokinase), 10 µM. As for the experimental part: as §1, §2

Another experiment deals with T4, RIPK4 (Homo sapiens, UniProt P57078).
T4 construct: purchased Ambit Biosciences (KINOMEscan)
T4 sequence (P57078 1-832): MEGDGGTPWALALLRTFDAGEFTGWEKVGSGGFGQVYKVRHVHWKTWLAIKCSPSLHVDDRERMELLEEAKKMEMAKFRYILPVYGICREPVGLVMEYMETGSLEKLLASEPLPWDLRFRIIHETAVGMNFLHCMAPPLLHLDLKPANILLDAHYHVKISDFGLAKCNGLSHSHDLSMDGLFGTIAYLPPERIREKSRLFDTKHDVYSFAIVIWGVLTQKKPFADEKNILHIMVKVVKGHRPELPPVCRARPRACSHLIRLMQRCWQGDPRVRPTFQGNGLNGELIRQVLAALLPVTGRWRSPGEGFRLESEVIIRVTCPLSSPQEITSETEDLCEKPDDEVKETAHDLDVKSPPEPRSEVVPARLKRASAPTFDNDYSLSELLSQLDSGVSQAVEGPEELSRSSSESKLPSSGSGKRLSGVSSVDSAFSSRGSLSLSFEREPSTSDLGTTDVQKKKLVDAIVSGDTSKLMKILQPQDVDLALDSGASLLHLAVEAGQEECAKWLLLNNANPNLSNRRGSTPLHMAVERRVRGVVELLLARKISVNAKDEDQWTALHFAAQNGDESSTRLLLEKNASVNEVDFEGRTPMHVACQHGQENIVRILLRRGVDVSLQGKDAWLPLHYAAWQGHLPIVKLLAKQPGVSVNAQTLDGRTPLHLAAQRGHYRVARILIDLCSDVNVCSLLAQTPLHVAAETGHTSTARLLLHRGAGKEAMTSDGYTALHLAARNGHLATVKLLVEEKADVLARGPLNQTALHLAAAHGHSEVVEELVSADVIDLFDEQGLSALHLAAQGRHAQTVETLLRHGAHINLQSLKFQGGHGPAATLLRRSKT
The procedure:
as §1, §2

The next experiment addresses T5, MST4 (Homo sapiens, UniProt Q9P289).
T5 construct: purchased Ambit Biosciences (KINOMEscan)
As for the experimental part:
as §1, §2

The next experiment concerns the target T6, HPK1 (Homo sapiens, UniProt Q92918).
T6 construct: purchased Ambit Biosciences (KINOMEscan)
The procedure: as §1, §2

The target of a further experiment is T7, CLK1 (Homo sapiens, UniProt P49759).
T7 construct: purchased Ambit Biosciences (KINOMEscan)
T7 sequence (P49759 whole entry): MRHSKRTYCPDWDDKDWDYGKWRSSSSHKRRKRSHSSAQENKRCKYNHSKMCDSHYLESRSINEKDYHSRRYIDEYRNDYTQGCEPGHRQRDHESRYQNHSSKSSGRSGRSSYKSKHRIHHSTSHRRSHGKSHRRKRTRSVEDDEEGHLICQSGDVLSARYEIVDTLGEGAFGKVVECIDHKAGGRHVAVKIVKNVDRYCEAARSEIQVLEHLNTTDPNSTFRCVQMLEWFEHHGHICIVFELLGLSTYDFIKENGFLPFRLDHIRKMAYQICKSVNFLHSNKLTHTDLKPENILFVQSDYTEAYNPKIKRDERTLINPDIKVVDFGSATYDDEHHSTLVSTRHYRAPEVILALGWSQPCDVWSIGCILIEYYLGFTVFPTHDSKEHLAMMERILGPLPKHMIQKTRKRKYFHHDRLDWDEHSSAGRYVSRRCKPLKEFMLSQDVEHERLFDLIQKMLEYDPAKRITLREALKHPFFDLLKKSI
As for the experimental part:
as §1, §2

Another experiment addresses T8, EGFR (Homo sapiens, UniProt P00533).
T8 construct: purchased Ambit Biosciences (KINOMEscan)
The conditions noted are these: for % Competition: 10 µM. The procedure:
as §1, §2

The structures appear in SMILES notation. Where two headings read alike, the source gives them in different places.

T5 sequence (Q9P289 whole entry): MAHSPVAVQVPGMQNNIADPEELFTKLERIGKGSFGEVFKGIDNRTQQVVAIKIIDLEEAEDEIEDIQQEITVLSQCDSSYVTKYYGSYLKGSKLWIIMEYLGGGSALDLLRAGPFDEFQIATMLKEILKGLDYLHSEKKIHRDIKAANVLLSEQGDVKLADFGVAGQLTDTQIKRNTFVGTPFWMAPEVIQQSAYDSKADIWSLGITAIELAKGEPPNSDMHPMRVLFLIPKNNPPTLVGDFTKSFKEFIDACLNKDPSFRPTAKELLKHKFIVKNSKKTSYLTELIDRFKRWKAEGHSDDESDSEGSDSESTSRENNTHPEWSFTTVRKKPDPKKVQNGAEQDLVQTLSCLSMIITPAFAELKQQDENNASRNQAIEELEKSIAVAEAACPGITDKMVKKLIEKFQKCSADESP
T8 sequence (P00533 25-1210): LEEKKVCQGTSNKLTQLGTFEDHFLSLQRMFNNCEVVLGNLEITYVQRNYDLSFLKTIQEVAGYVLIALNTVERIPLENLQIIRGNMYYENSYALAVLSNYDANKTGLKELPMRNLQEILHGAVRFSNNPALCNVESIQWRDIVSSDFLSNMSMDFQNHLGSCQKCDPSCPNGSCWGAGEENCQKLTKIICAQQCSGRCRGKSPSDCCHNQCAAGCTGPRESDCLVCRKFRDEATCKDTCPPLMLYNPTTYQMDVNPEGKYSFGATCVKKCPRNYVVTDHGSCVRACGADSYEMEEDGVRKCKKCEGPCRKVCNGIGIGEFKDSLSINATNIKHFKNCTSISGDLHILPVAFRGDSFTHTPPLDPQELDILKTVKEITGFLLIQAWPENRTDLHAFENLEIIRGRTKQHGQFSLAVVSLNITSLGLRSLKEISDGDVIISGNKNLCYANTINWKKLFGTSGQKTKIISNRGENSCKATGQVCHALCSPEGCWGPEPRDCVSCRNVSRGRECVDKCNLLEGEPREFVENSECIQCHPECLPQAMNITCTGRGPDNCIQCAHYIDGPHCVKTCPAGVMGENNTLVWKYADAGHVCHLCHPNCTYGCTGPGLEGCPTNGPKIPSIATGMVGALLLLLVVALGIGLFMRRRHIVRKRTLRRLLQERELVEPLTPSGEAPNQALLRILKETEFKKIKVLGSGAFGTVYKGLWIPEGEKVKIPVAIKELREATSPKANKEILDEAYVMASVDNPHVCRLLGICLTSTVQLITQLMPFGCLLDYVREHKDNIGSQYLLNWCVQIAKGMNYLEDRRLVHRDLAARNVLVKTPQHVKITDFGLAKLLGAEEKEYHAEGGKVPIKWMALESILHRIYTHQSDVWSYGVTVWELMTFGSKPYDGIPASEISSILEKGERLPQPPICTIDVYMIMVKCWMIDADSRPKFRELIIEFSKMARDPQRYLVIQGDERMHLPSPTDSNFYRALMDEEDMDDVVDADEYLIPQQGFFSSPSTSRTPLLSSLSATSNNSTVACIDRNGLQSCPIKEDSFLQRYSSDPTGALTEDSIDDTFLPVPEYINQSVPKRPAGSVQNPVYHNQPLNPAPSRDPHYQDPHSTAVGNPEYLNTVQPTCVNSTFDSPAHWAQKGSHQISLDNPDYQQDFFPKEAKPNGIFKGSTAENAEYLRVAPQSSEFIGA
T6 sequence (Q92918 whole entry): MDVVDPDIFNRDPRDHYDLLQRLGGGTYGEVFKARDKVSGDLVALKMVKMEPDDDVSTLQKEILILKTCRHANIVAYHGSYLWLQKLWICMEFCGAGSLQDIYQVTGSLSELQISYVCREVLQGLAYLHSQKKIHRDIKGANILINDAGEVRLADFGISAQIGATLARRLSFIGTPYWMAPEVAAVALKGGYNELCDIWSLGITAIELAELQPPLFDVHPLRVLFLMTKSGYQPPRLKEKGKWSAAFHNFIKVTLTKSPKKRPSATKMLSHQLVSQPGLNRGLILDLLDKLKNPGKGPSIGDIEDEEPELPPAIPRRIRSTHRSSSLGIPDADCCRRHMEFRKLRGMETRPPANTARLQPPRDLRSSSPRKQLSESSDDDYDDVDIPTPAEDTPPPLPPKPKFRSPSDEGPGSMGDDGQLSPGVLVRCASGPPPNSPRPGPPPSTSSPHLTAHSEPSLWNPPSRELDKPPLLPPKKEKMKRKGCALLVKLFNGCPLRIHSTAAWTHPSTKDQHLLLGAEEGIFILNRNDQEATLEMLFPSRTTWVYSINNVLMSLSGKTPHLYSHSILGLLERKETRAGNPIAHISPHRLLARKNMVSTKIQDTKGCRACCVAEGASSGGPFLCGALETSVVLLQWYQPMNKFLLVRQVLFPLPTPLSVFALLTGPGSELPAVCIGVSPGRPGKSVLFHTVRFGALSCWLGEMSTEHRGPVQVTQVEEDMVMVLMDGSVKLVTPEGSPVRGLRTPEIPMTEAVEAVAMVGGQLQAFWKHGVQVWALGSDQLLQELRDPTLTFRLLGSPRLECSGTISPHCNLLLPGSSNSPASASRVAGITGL

On to `Fc1ccc(-c2c(-c3ccncc3)[nH]c3nccnc23)cc1` [Compound 122], for which the inhibition at 10 µM on PRKD2 (PRKD2 (PKD2), 10 µM, read-out: % Competition) turned out to be 98%; at RIPK4 (RIPK4, 10 µM, read-out: % Competition), 76%; on MST4 (MST4, 10 µM, read-out: % Competition), 97%; on HPK1 (HPK1, 10 µM, read-out: % Competition) it was 67%; on CLK1 (CLK1, 10 µM, read-out: % Competition), 97%. On PKC ε, this molecule yielded a competition of under 50%. For the same molecule, the “% Competition” value in experiment [1] turned out to be 99%; at EGFR, 95%.

Regarding `Fc1ccc(-c2c(-c3ccncc3)[nH]c3nccnc23)cc1` [RO1155697-000-005], the inhibition at 10 µM was 98% on PRKD2 (PRKD2, compound concentration 10 uM, read-out: Percent Competition); under 50% on PKC ε (PRKCE, compound concentration 10 uM, read-out: Percent Competition); 76% on RIPK4 (RIPK4, compound concentration 10 uM, read-out: Percent Competition); 97% at MST4 (MST4, compound concentration 10 uM, read-out: Percent Competition); 67% on HPK1 (HPK1, compound concentration 10 uM, read-out: Percent Competition); 97% on CLK1 (CLK1, compound concentration 10 uM, read-out: Percent Competition). Moreover, the “Percent Competition” value stood at 99% in experiment [1] (JAK1(JH2domain-pseudokinase), compound concentration 10 uM) and 95% on EGFR (compound concentration 10 uM).

Regarding `CC(O)CNc1cc(-c2[nH]c3cccnc3c2-c2ccc(F)cc2)ccn1` (stereo not drawn) [Compound 140], the inhibition at 10 µM is 99% at PRKD2 (read-out: % Competition); under 50% on RIPK4 (read-out: % Competition); under 50% at MST4 (read-out: % Competition); under 50% on HPK1 (read-out: % Competition); under 50% on CLK1 (read-out: % Competition). Moreover, at PKC ε, the competition is reported as under 50%. For the same molecule, the “% Competition” value in experiment [1] is 90%; at EGFR, 76%.
